# Test results from patent publication US10167262B2, “Herbicidal substituted 3-arylpyrazoles” (FMC CORPORATION, priority 2014, dated 2019).
# Read-outs that look alike come from different tables or passages of the source.
# Key:
# Assay in all cases: Test C pre-/postemergence greenhouse test, plant response rating 0-100
# Format in all cases: in vivo
# [1] = tested on: ragweed (common ragweed, Ambrosia elatior); settings: Ambrosia artemisiifolia, pre-emergence, Preemergence
# Description: (§1) Seeds of plant species selected from blackgrass (Alopecurus myosuroides), Italian ryegrass (Lolium multiflorum), winter wheat (Triticum aestivum), galium (catchweed bedstraw, Galium aparine), corn (Zea mays), large (Lg) crabgrass (Digitaria sanguinalis), giant foxtail (Setaria faberii), johnsongrass (Sorghum halepense), lambsquarters (Chenopodium album), morningglory (Ipomoea coccinea), yellow nutsedge (Cyperus esculentus), pigweed (Amaranthus retroflexus), ragweed (common ragweed, Ambrosia elatior), soybean (Glycine max), barnyardgrass (Echinochloa crus-galli), oilseed rape (Brassica napus), waterhemp (common waterhemp, Amaranthus rudis), and velvetleaf (Abutilon theophrasti) were planted into a blend of loam soil and sand and treated preemergence with test chemicals formulated in a non-phytotoxic solvent mixture which included a surfactant.
# (§2) At the same time, plants selected from these crop and weed species and also winter barley (Hordeum vulgare), bermudagrass (Cynodon dactylon), downy bromegrass (Bromus tectorum), canarygrass (Phalaris minor), cocklebur (common cocklebur, Xanthium strumarium), woolly cupgrass (Eriochloa villosa), deadnettle (henbit deadnettle, Lamium amplexicaule), green foxtail (Setaria viridis), goosegrass (Eleusine indica), surinam grass (Brachiaria decumbens), windgrass (Apera spica-venti), chickweed (common chickweed, Stellaria media), kochia (Kochia scoparia), and wild oat (Avena fatua), were planted in pots containing Redi-Earth® planting medium (Scotts Company, 14111 Scottslawn Road, Marysville, Ohio 43041) comprising spaghnum peat moss, vermiculite, wetting agent and starter nutrients and treated with postemergence applications of test chemicals formulated in the same manner. Plants ranged in height from 2 to 18 cm (1- to 4-leaf stage) for postemergence treatments. Treated plants and controls were maintained in a greenhouse for 13 to 15 days, after which time all species were compared to controls and visually evaluated. Plant response ratings, summarized in Table C, are based on a scale of 0 to 100 where 0 is no effect and 100 is complete control. A dash (-) response means no test result.
# [2] = tested on: galium (catchweed bedstraw, Galium aparine); settings: Galium; for pest or weed control at 62 g/ha: 62 g ai/ha; for pest or weed control at 125 g/ha: 125 g ai/ha; for pest or weed control at 250 g/ha: 250 g ai/ha; for pest or weed control at 500 g/ha: 500 g ai/ha
# Description: as §1, §2
# [3] = tested on: yellow nutsedge (Cyperus esculentus); settings: Cyperus; for pest or weed control at 62 g/ha: 62 g ai/ha; for pest or weed control at 125 g/ha: 125 g ai/ha; for pest or weed control at 250 g/ha: 250 g ai/ha; for pest or weed control at 500 g/ha: 500 g ai/ha
# Description: as §1, §2
# [4] = tested on: Italian ryegrass (Lolium multiflorum); settings: Lolium multiflorum; for pest or weed control at 62 g/ha: 62 g ai/ha; for pest or weed control at 125 g/ha: 125 g ai/ha; for pest or weed control at 250 g/ha: 250 g ai/ha; for pest or weed control at 500 g/ha: 500 g ai/ha
# Description: as §1, §2
# [5] = tested on: large (Lg) crabgrass (Digitaria sanguinalis); settings: Digitaria sanguinalis; for pest or weed control at 62 g/ha: 62 g ai/ha; for pest or weed control at 125 g/ha: 125 g ai/ha; for pest or weed control at 250 g/ha: 250 g ai/ha; for pest or weed control at 500 g/ha: 500 g ai/ha
# Description: as §1, §2
# [6] = post-emergence, Postemergence, read-out: Plant response rating (0 to 100), Galium
# [7] = post-emergence, Postemergence, scale 0 to 100
# [8] = pre-emergence, Preemergence, read-out: Plant response rating, Galium
# [9] = post-emergence, Postemergence, read-out: Plant response rating (0 to 100), Nutsedge, Yellow
# [10] = pre-emergence, Preemergence, read-out: Plant response rating, Nutsedge, Yellow
# [11] = post-emergence, Postemergence, read-out: Plant response rating (0 to 100), Ryegrass, Italian
# [12] = pre-emergence, Preemergence, read-out: Plant response rating, Ryegrass, Italian
# [13] = post-emergence, Postemergence, read-out: Plant response rating (0 to 100), Crabgrass, Large
# [14] = pre-emergence, Preemergence, read-out: Plant response rating, Crabgrass, Large
structure (smiles),measurement,setting,value
"CCOC(OCC)(c1ccccc1)c1c[nH]nc1-c1cc(Cl)cc(Cl)c1 [Compound 14, 3-(3,5-dichlorophenyl)-4-(diethoxyphenylmethyl)-1H-pyrazole]",pest or weed control at 62 g/ha,"[1]; 62 g ai/ha, read-out: Plant response rating, Ragweed",75%
same,pest or weed control at 125 g/ha,"[1]; 125 g ai/ha, read-out: Plant response rating, Ragweed",100%
same,pest or weed control at 250 g/ha,[1]; 250 g ai/ha,100%
same,pest or weed control at 500 g/ha,[1]; 500 g ai/ha,100%
same,pest or weed control at 62 g/ha,[2]; [6],0%
same,pest or weed control at 125 g/ha,[2]; [6],30%
same,pest or weed control at 250 g/ha,[2]; [7],50%
same,pest or weed control at 500 g/ha,[2]; [7],45%
same,pest or weed control at 62 g/ha,[2]; [8],0%
same,pest or weed control at 125 g/ha,[2]; [8],60%
same,pest or weed control at 250 g/ha,"[2]; pre-emergence, Preemergence",80%
same,pest or weed control at 500 g/ha,"[2]; pre-emergence, Preemergence",0%
same,pest or weed control at 62 g/ha,[3]; [9],0%
same,pest or weed control at 125 g/ha,[3]; [9],0%
same,pest or weed control at 250 g/ha,[3]; [7],0%
same,pest or weed control at 500 g/ha,[3]; [7],0%
same,pest or weed control at 62 g/ha,[3]; [10],0%
same,pest or weed control at 125 g/ha,[3]; [10],0%
same,pest or weed control at 250 g/ha,"[3]; pre-emergence, Preemergence",0%
same,pest or weed control at 500 g/ha,"[3]; pre-emergence, Preemergence",0%
same,pest or weed control at 62 g/ha,[4]; [11],0%
same,pest or weed control at 125 g/ha,[4]; [11],0%
same,pest or weed control at 250 g/ha,[4]; [7],0%
same,pest or weed control at 500 g/ha,[4]; [7],5%
same,pest or weed control at 62 g/ha,[4]; [12],0%
same,pest or weed control at 125 g/ha,[4]; [12],0%
same,pest or weed control at 250 g/ha,"[4]; pre-emergence, Preemergence",0%
same,pest or weed control at 500 g/ha,"[4]; pre-emergence, Preemergence",0%
same,pest or weed control at 62 g/ha,[5]; [13],0%
same,pest or weed control at 125 g/ha,[5]; [13],0%
same,pest or weed control at 250 g/ha,[5]; [7],0%
same,pest or weed control at 500 g/ha,[5]; [7],0%
same,pest or weed control at 62 g/ha,[5]; [14],0%
same,pest or weed control at 125 g/ha,[5]; [14],0%
same,pest or weed control at 250 g/ha,"[5]; pre-emergence, Preemergence",0%
same,pest or weed control at 500 g/ha,"[5]; pre-emergence, Preemergence",0%
